US7045343B2, “Sterilization indicator test packs” (3M Innovative Properties Company, priority 1998, dated 2006)

Assays:
[1] = tested on: enzyme associated with Bacillus stearothermophilus spores; experiment: Rapid enzyme fluorescence readout of dual rapid readout indicators after prevacuum steam sterilization; assay type: biochemical; conditions: 4-pulse prevacuum steam 121° C.
Procedure: (§1) The indicators prepared for the Examples were dual rapid readout indicators that provided both a rapid, enzyme-based efficacy test and a confirmatory spore outgrowth test. Spores coated on the carrier strip 16 served as the source of active enzyme whose activity was measured by the rapid enzyme test. These same spores were then incubated in the spore outgrowth portion of the test.
(§2) Bacillus stearothermophilus, commercially available as ATCC 7953 from American Type Culture Collection, Rockville, Md., was grown overnight (16 hours) at 58° C. in tryptic soy broth. This culture was used to inoculate the surface of agar plates consisting of 8 g/l nutrient broth, 4 g/l yeast extract, 0.1 g/l manganese chloride and 20 g/l agar at pH 7.2. Plates were incubated at 58° C. for 72 hours. Spores were scraped from the plates and suspended in sterile distilled water. The spores were separated from the vegetative debris by centrifuging the suspension at 7000 rpm and 4° C. for 20 minutes. The supernatant was poured off and the spores were resuspended in sterile distilled water. The cleaning procedure was repeated several times. After the final wash, the spores were suspended in sterile distilled water, at a concentration of approximately 1×10^8 spores per milliliter.
(§3) The spores were then treated with the chemicals identified in Tables 1–5. All chemicals tested were obtained from commercial sources. The spores were centrifuged at 6000 rpm for 10 minutes. The supernatant and coating chemical mixtures were heated at 60–80° C. for several minutes and vortexed to get the material into solution. The spores were then mixed into the sterilant-resistant chemical solution. The sterilant-resistant chemical solution was applied to 5×25 mm, 591 A paper strips (Schleicher & Schuell, Inc., Keene, N.H.) by pipetting 10–15 microliters to each strip for a final population of about 1×10^6 spores per strip. The strips were dried 16 hours at 37° C.
(§4) The treated spore strips were placed on the bottom of the outer container 12 of the indicator 10 and a barrier was inserted between the spore strip 16 and the inner container 18, which contained enzyme substrate. A […] ( 11/16 inch) disc of polypropylene blown microfiber material, with a weight of 200 g/m^2, commercially available as “THINSULATE™ 200-B brand Thermal Insulation” from 3M Company, St. Paul, Minn., was used as the barrier. The inner container 18 contained 0.67 ml nutrient medium, consisting of 17 g of a bacteriological peptone and a 0.17 g/l of L-alanine, as well as 0.1 g 4-methylumbelliferyl-alpha-D-glucoside, commercially available from Sigma Chemical Company, St. Louis, Mo., dissolved in 200 microliters of N,N-dimethylformamide, and 0.03 g bromocresol purple pH indicator dye, per liter of water. The pH of the enzyme substrate and nutrient medium solution was adjusted to 7.6 with 0.1N sodium hydroxide.
(§5) Sterilization indicators were made as described above with each of the chemicals and concentrations described in Table 1. Control indicators were made using untreated spores. The indicators were placed in metal instrument trays and exposed at 121° C. in a Getinge Steam Sterilizer (Getinge International, Inc., 1100 Towbin Ave., Lakewood, N.J.) using a 4-pulse prevacuum cycle at 121° C. with a vacuum level of 0.075–0.085 bar and a steam pulse to 1.00 bar for each pulse. Indicators were exposed in the sterilizer for between 7 and 13 minutes. This cycle is depicted in the time-pressure diagram in FIG. 5. After exposure the inner containers containing the enzyme substrate and nutrient medium were crushed and the indicators were incubated at 60° C. The indicators were examined for fluorescence using a 3M™ ATTEST™ Model 190 Rapid Autoreader, commercially available from 3M Company, St. Paul, Minn. Additionally, spore growth, as indicated by a color change from purple to yellow, was determined visually after 168 hours of incubation at 60° C. […]

[2] = tested on: Bacillus stearothermophilus spores; experiment: Spore outgrowth (color change) of indicators after prevacuum steam sterilization; assay type: cell-based; conditions: 4-pulse prevacuum steam 121° C.
Procedure: as §1, §2, §3, §4, §5

[3] = tested on: enzyme associated with Bacillus stearothermophilus spores; experiment: Rapid enzyme fluorescence readout of indicators after hydrogen peroxide plasma sterilization; assay type: biochemical; conditions: for FLUORESCENCE - PERCENT POSITIVE 1 HR / FLUORESCENCE - PERCENT POSITIVE 2 HR / FLUORESCENCE - PERCENT POSITIVE 3 HR / FLUORESCENCE - PERCENT POSITIVE 4 HR / FLUORESCENCE - PERCENT POSITIVE 5 HR: 1–22 min diffusion;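 on FLUORESCENCE - PERCENT POSITIVE 5 HR: percent of growth-positive indicators that were also fluorescence-positive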
Procedure: (§6) Sterilization indicators for Examples 6–9 were prepared as described above with the exception that closure member 22 of the sterilization indicator was constructed of TYVEK™ high-density polyethylene fiber material, commercially available from E.I. du Pont de Nemours and Co., Wilmington, Del.
(§7) Sterilization indicators were made as described above with spores that had been coated with each of the chemicals and concentrations listed in Table 6. The indicators were placed in instrument trays and exposed to a hydrogen peroxide plasma sterilization procedure at 45–55° C. in a STERRAD™ 100SI GMP Sterilizer, obtained from Advanced Sterilization Products Co., Irvine, Calif. During the sterilization procedure a vacuum was drawn in the sterilization chamber for 5–6 minutes until the pressure was reduced to 300 mTorr. A 1.8 ml aliquot of an aqueous solution of 58–60% hydrogen peroxide was then injected into the sterilization chamber over a period of about 6 minutes, yielding an empty chamber concentration of […] hydrogen peroxide, and hydrogen peroxide vapor was allowed to diffuse throughout the chamber for 1–22 minutes at 6–10 Torr. A vacuum was then drawn, reducing the pressure to 500 mTorr and removing all detectable hydrogen peroxide vapor from the chamber.
(§8) After exposure to the sterilization procedure, the indicators were removed from the sterilizer and the inner containers containing the enzyme substrate and nutrient medium were crushed. The indicators were then incubated at 60° C. and examined for fluorescence every hour for 5 hours using a 3M™ ATTEST™ Model 190 Rapid Autoreader, commercially available from 3M Company, St. Paul, Minn. Additionally, spore growth, as indicated by a color change from purple to yellow, was determined visually after 168 hours of incubation.
(§9) The number of growth positive indicators detected after 168 hours of incubation is recorded in Table 6.
as §7, with “7.” for “6.”
as §7, with “8.” for “6.”, “chamber. […]” for “chamber.”

[4] = tested on: Bacillus stearothermophilus spores; experiment: Spore outgrowth (color change) of indicators after hydrogen peroxide plasma sterilization; assay type: cell-based; conditions: 1–22 min diffusion
Procedure: as §6, §7, §8, §9
as §7, with “7.” for “6.”
as §7, with “8.” for “6.”, “chamber. […]” for “chamber.”

[5] = Example 5, 50 mg/ml coating, 7–13 min
[6] = Example 5, 100 mg/ml coating, 7–13 min
[7] = Example 4, 50 mg/ml coating, 7–18 min
[8] = Example 4, 100 mg/ml coating, 7–18 min

Substance: Sodium POE(8) Oleyl Ether Phosphate
- FLUORESCENCE - PERCENT POSITIVE 1 HR [1, 5]: 0%
- FLUORESCENCE - PERCENT POSITIVE 2 HR [1, 5]: 0%
- FLUORESCENCE - PERCENT POSITIVE 3 HR [1, 5]: 0%
- FLUORESCENCE - PERCENT POSITIVE 4 HR [1, 5]: 0%
- FLUORESCENCE - PERCENT POSITIVE 1 HR [1, 6]: 0%
- FLUORESCENCE - PERCENT POSITIVE 2 HR [1, 6]: 0%
- FLUORESCENCE - PERCENT POSITIVE 3 HR [1, 6]: 0%
- FLUORESCENCE - PERCENT POSITIVE 4 HR [1, 6]: 0%
- NO. GROWTH POSITIVE 168 HR [2, 5]: 6
- NO. GROWTH POSITIVE 168 HR [2, 6]: 3
- FLUORESCENCE - PERCENT POSITIVE 1 HR ([3]; Example 8, 50 mg/ml coating): 0%
- FLUORESCENCE - PERCENT POSITIVE 2 HR ([3]; Example 8, 50 mg/ml coating): 0%
- FLUORESCENCE - PERCENT POSITIVE 3 HR ([3]; Example 8, 50 mg/ml coating): 0%
- FLUORESCENCE - PERCENT POSITIVE 4 HR ([3]; Example 8, 50 mg/ml coating): 0%
- FLUORESCENCE - PERCENT POSITIVE 5 HR ([3]; Example 8, 50 mg/ml coating): 0%
- FLUORESCENCE - PERCENT POSITIVE 1 HR ([3]; Example 8, 100 mg/ml coating): 0%
- FLUORESCENCE - PERCENT POSITIVE 2 HR ([3]; Example 8, 100 mg/ml coating): 0%
- FLUORESCENCE - PERCENT POSITIVE 3 HR ([3]; Example 8, 100 mg/ml coating): 0%
- FLUORESCENCE - PERCENT POSITIVE 4 HR ([3]; Example 8, 100 mg/ml coating): 0%
- FLUORESCENCE - PERCENT POSITIVE 5 HR ([3]; Example 8, 100 mg/ml coating): 0%
- NO. GROWTH POSITIVE 168 HR ([4]; Example 8, 50 mg/ml coating): 0
- NO. GROWTH POSITIVE 168 HR ([4]; Example 8, 100 mg/ml coating): 0

Substance: Hexaglyceryl Dioleate
- FLUORESCENCE - PERCENT POSITIVE 1 HR [1, 7]: 0%
- FLUORESCENCE - PERCENT POSITIVE 2 HR [1, 7]: 0%
- FLUORESCENCE - PERCENT POSITIVE 3 HR [1, 7]: 0%
- FLUORESCENCE - PERCENT POSITIVE 4 HR [1, 7]: 0%
- FLUORESCENCE - PERCENT POSITIVE 1 HR [1, 8]: 0%
- FLUORESCENCE - PERCENT POSITIVE 2 HR [1, 8]: 0%
- FLUORESCENCE - PERCENT POSITIVE 3 HR [1, 8]: 0%
- FLUORESCENCE - PERCENT POSITIVE 4 HR [1, 8]: 0%
- NO. GROWTH POSITIVE 168 HR [2, 7]: 7
- NO. GROWTH POSITIVE 168 HR [2, 8]: 23
- FLUORESCENCE - PERCENT POSITIVE 1 HR ([3]; Example 6, 50 mg/ml coating): 66.7%
- FLUORESCENCE - PERCENT POSITIVE 2 HR ([3]; Example 6, 50 mg/ml coating): 100%
- FLUORESCENCE - PERCENT POSITIVE 3 HR ([3]; Example 6, 50 mg/ml coating): 100%
- FLUORESCENCE - PERCENT POSITIVE 4 HR ([3]; Example 6, 50 mg/ml coating): 100%
- FLUORESCENCE - PERCENT POSITIVE 5 HR ([3]; Example 6, 50 mg/ml coating): 100%
- NO. GROWTH POSITIVE 168 HR ([4]; Example 6, 50 mg/ml coating): 6

Substance: polyoxyethylene (60) glycerol monostearate [POE(60) Glycerol Monostearate]
- accuracy of sterilization indicators compared to indicators made with untreated spores ([3]; 2–3 hours after exposure): improved
- FLUORESCENCE - PERCENT POSITIVE 1 HR ([3]; Example 7, 50 mg/ml coating): 100%
- FLUORESCENCE - PERCENT POSITIVE 2 HR ([3]; Example 7, 50 mg/ml coating): 100%
- FLUORESCENCE - PERCENT POSITIVE 3 HR ([3]; Example 7, 50 mg/ml coating): 100%
- FLUORESCENCE - PERCENT POSITIVE 4 HR ([3]; Example 7, 50 mg/ml coating): 100%
- FLUORESCENCE - PERCENT POSITIVE 5 HR ([3]; Example 7, 50 mg/ml coating): 100%
- FLUORESCENCE - PERCENT POSITIVE 1 HR ([3]; Example 7, 100 mg/ml coating): 57.1%
- FLUORESCENCE - PERCENT POSITIVE 2 HR ([3]; Example 7, 100 mg/ml coating): 57.1%
- FLUORESCENCE - PERCENT POSITIVE 3 HR ([3]; Example 7, 100 mg/ml coating): 71.4%
- FLUORESCENCE - PERCENT POSITIVE 4 HR ([3]; Example 7, 100 mg/ml coating): 71.4%
- FLUORESCENCE - PERCENT POSITIVE 5 HR ([3]; Example 7, 100 mg/ml coating): 71.4%
- NO. GROWTH POSITIVE 168 HR ([4]; Example 7, 50 mg/ml coating): 7
- NO. GROWTH POSITIVE 168 HR ([4]; Example 7, 100 mg/ml coating): 7
